Key:
[1] = tested on: RTKs; details: in words; cited from earlier work
[2] = tested on: retinal neovascularization; details: pigs; cited from earlier work
[3] = tested on: retinal blood vessels; details: administration of exogenous VEGF; cited from earlier work
[4] = tested on: VEGF receptors; experiment: Cellular autophosphorylation assay, transfected Chinese hamster ovary cells: VEGF receptors; type: cell-based
Method: (§1) In vivo activity requires drugs to enter cells and therefore agents are tested in cellular autophosphorylation assays, using Chinese hamster ovary cells transfected with one of several RTK genes.

[5] = tested on: other RTKs including VEGF receptors; experiment: Kinase assay, other RTKs including VEGF receptors; type: biochemical; details: in words
[6] = tested on: PDGF receptors; experiment: Cellular autophosphorylation assay, transfected Chinese hamster ovary cells: PDGF receptors; type: cell-based
Method: as §1

[7] = tested on: retinal vascular development; experiment: Retinal vascular development in neonatal mice; type: in vivo, mouse (C57/BL6J)
Method: Litters of newborn C57/BL6J mice are divided into treatment and control groups which received daily subcutaneous injections of 10 mg/kg of drug or vehicle, respectively. […] The eyes are removed and fixed for 1 hour in 10% phosphate-buffered formalin. The cornea and lens are removed and the entire retina is carefully dissected from the eyecup, radially cut from the edge of the retina to the equator in all 4 quadrants, and flat-mounted in Aquamount with photoreceptors facing upward.

[8] = tested on: all other tyrosine kinase and serine/threonine kinases tested; experiment: Kinase assay, all other tyrosine kinase and serine/threonine kinases tested; type: biochemical; details: in words
[9] = target: T1, c-Kit (Homo sapiens, UniProt P10721); type: cell-based; details: transfected Chinese hamster ovary cells
T1 construct: expressed in transfected cells; host or cells: Chinese hamster ovary cells
T1 sequence (P10721 26-976): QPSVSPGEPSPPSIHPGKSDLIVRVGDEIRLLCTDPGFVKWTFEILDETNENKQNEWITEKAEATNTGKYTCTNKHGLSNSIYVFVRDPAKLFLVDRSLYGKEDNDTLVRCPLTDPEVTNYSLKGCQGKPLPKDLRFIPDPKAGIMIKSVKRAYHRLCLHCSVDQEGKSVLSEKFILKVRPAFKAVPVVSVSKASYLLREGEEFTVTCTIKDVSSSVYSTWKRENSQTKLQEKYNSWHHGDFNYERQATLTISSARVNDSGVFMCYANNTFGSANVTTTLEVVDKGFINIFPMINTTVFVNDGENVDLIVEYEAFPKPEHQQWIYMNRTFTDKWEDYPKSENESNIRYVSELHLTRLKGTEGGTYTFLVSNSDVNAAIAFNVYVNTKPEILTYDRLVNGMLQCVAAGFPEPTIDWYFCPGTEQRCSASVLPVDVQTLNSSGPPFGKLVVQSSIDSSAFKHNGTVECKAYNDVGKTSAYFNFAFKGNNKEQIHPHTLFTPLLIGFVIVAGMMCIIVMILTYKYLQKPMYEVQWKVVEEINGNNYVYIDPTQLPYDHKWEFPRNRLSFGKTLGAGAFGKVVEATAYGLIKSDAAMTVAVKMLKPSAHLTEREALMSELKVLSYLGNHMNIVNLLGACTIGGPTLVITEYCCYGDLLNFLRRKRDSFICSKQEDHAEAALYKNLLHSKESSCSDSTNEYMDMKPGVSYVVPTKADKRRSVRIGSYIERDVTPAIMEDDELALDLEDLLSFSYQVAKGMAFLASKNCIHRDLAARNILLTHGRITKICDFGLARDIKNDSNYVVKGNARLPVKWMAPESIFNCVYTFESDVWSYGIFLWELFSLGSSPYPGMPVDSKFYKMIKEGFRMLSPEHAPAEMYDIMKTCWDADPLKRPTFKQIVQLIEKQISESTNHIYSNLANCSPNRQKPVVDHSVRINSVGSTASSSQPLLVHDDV
Method: as §1

[10] = tested on: choroidal neovascularization; experiment: Laser-induced choroidal neovascularization in mice; details: 50 mg/kg/day by gavage
Method: Choroidal neovascularization is generated by modification of a previously described technique. […] Three burns of krypton laser photocoagulation (100pm spot size, 0.1 seconds duration, 150 mW) are delivered to each retina using the slit lamp delivery system of a Coherent Model 920 Photocoagulator and a hand held cover slide as a contact lens. Burns are performed in the 9, 12, and 3 o'clock positions of the posterior pole of the retina. Production of a bubble at the time of laser, which indicates rupture of Bruch's membrane, is an important factor in obtaining CNV ^16, so only mice in which a bubble is produced for all three burns are included in the study. Ten mice are randomly assigned to treatment with vehicle alone and 10 mice received vehicle containing 120 μmoles/kg/day of one of the test drugs given orally by gavage. After 14 days, the mice are killed with an overdose of pentobarbital sodium, and their eyes are rapidly removed and frozen in optimal cutting temperature embedding compound (OCT).
After a 10 minute wash in 0.05 M Tris buffer, pH 7.6, slides are developed in Histomark Red (Kirkegaard and Perry) to give a red reaction product, and mounted with Cytoseal (Stephens Scientific, Riverdale, N.J.). Some slides are counterstained with Contrast Blue (Kirkegaard and Perry).
For each lesion, area measurements are made for all sections on which some of the lesion appeared and added together to give the integrated area measurement. Values are averaged to give one experimental value per mouse. A 2-sample t-test for unequal variances is performed to compare the log mean integrated area between treatment and control mice.

[11] = tested on: insulin receptor; experiment: Cellular autophosphorylation assay, transfected Chinese hamster ovary cells: insulin receptor; type: cell-based
[12] = target: T2, Flt-1 (Homo sapiens, UniProt P17948); experiment: Tyrosine kinase assay, phosphorylation of poly(GluTyr) by GST-fusion kinase domain: Flt-1; type: biochemical; details: in words
T2 construct: kinase domains of human VEGF receptors 1 and 2
T2 sequence (P17948 827-1158 limits assumed): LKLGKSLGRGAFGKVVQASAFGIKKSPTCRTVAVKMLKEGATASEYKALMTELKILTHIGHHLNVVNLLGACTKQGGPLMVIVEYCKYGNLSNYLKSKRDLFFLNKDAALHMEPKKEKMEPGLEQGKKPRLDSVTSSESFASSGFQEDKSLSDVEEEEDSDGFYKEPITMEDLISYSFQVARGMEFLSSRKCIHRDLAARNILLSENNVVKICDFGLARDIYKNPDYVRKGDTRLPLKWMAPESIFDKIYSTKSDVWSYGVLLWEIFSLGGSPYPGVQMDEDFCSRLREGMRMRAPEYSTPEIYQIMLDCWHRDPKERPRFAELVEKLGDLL

[13] = tested on: c-erbB2; experiment: Cellular autophosphorylation assay, transfected Chinese hamster ovary cells: c-erbB2; type: cell-based
Method: as §1

Compound: O=c1c(-c2ccc(O)cc2)coc2cc(O)cc(O)c12 [Genistein, 4',5,7-trihydroxyisoflavone]
- inhibition of RTKs [1]: relatively weak, nonspecific inhibitor

Compound: CN(C)C[C@@H]1CCn2cc(c3ccccc32)C2=C(C(=O)NC2=O)c2cn(c3ccccc23)CCO1 [LY 333531]
- inhibition of retinal neovascularization after laser-induced branch vein occlusion [2]: partially inhibited retinal neovascularization

Compound: VEGF
- hyperoxia-induced regression of retinal blood vessels [3]: prevented

Compound: Cc1ccc(NC(=O)c2ccccc2)cc1Nc1nccc(-c2cccnc2)n1 [CGP 53 716]
- inhibition of autophosphorylation of VEGF receptors [4]: poor inhibitors
- inhibition of other RTKs including VEGF receptors [5]: little or no inhibitory activity
- inhibition of autophosphorylation of PDGF receptors [6]: potent inhibitors

Compound: Clc1ccc(Nc2nnc(Cc3ccncc3)c3ccccc23)cc1 [CGP 79787D]
- extent of retinal vessels at P7 ([7]; 10 mg/kg daily s.c. from P0, P7): only extended about half way to the periphery
- extent of superficial capillary bed at P10 ([7]; 10 mg/kg daily s.c. from P0, P10): has not yet reached the edge of the retina
- significance of differences in retinal vascular development versus vehicle ([7]; 10 mg/kg daily s.c., P7 and P10, FIG. 5): highly significant
- inhibition of phosphorylation by all other kinases tested [8]: poor inhibitor
- inhibition of autophosphorylation of c-Kit [9]: inhibits autophosphorylation
- appearance of overlying retinal vessels ([10]; two weeks after laser): appeared normal
- choroidal neovascularization at laser-induced rupture sites of Bruch's membrane ([10]; two weeks after laser): very little if any choroidal neovascularization
- integrated area of lectin staining per lesion ([10]; n=5, vehicle 0.0713812±0.0066723 mm^2): 0.01124±0.001483 mm^2
- inhibition of autophosphorylation of insulin receptor [11]: poor inhibitor
- inhibition of phosphorylation by the kinase domain of human VEGF receptor 1 [12]: good inhibitor
- inhibition of autophosphorylation of VEGF receptors [4]: inhibits autophosphorylation
- inhibition of autophosphorylation of PDGF receptors [6]: inhibits autophosphorylation
- inhibition of autophosphorylation of c-erbB2 [13]: poor inhibitor
